# Measured values as given in patent publication US7132441B2, “Immunosuppressive effects of administration of a cyclooxygenase-2 inhibitor and a 5-lipoxygenase inhibitor” (G.D. Searle & Co., priority 1996, dated 2006).
# Tested on: B10.Br mouse tailskin grafted on male C57BL/10 mice
# Test: Skin graft rejection time (transplantation and evaluation of graft rejection)
# Assay type: in vivo
# Conditions: i.p. from day of grafting until rejection, Example 2 30 mpk/day q.d., Example 3 10 mpk/day q.d.; for Skin Graft Rejection Time, Ex. #1 Rejection: experiment #1; for Skin Graft Rejection Time, Ex. #3 Rejection: experiment #3
# Source text: Transplantation and Evaluation of Graft Resection
# The method of skin grafting used has been previously described [D. Steinmuller, Skin Grafting. Surgical Techniques in Immunology, Methods Enzymol. […] Briefly, a tailskin from an 8–12 week old male B10.Br mouse was removed and stored in cold saline. Male C57BL/10 mice were anesthetized, and their backs were shaved. The backs were scrubbed with alcohol, and a 1 cm^2 piece of skin was removed. A similar size piece of skin was cut from the tailskin of the B10.Br mouse and placed in the excised area on the C57BL/10 animal's back. A petroleum jelly coated bandage was placed over the graft and held in place by a single surgical staple. Compounds were prepared as a suspension in 0.5% methylcellulose (Sigma, St. Louis, Mo.), and 0.025% Tween® 20 (Sigma). The compounds were administered by i.p. injection in a volume of 0.1 ml beginning on the day of skin grafting and continuing until transplant rejection. […] Compounds were administered alone or as combinations of a COX-2 and 5-LO inhibitor. Bandages were left in place until 8 days post grafting. At that time they were removed, and the grafts were observed daily or signs of rejection. Rejection was determined by complete blackening or scabbing of the grafted skin.
Compound,"Skin Graft Rejection Time, Ex. #1 Rejection","Skin Graft Rejection Time, Ex. #3 Rejection"
"COc1ccc(-c2cc(C(F)F)nn2-c2ccc(S(N)(=O)=O)cc2)cc1F [Example 2, 4-[5-(3-Fluoro-4-methoxyphenyl)-3-(difluoromethyl)-1H-pyrazol-1-yl]benzenesulfonamide]",15.7 days,17.3 days
"CC(C#Cc1ccc(Oc2ccc(F)cc2)o1)N(O)C(N)=O (stereo not shown) [Example 3, N′-[3-[5-(4-Fluorophenoxy)furyl-2-yl]-1-methyl-2-propynyl]-N′-hydroxyurea]",15.0 days,17.0 days
